Measurements: article PMC5465257, “Evaluation of JNJ-54717793 a Novel Brain Penetrant Selective Orexin 1 Receptor Antagonist in Two Rat Models of Panic Attack Provocation” (Frontiers in Pharmacology, 2017)
Read-outs that look alike come from different tables or passages of the source.

Columns and labels:
[1] = test system: wild-type mice; assay: Sleep recording (EEG/EMG) in wild-type mice; type: in vivo, mouse
Experimental: Sleep experiments were conducted in male Sprague-Dawley rats (350–450 g, Harlan Laboratories, Livermore, CA, United States) and in male C57Bl6 OX2R knockout (KO) and corresponding wild-type mice (30–35 g, Charles River Laboratories, San Diego, CA, United States) as described previously ([Dugovic et al., 2009]). Animals were chronically implanted with telemetric devices (Data Sciences International, St. Paul, MN, United States) for the recording of electroencephalogram (EEG) and electromyogram (EMG) signals. Polysomnographic waveforms were analyzed per 10-s epoch and classified as wake, non-rapid eye movement (NREM) or REM sleep by using the computer software program SleepSign (Kissei Comtec, Nagano, Japan). For each experiment, EEG and EMG signals were recorded for up to 6 h after administration of the tested compounds. Analysis of sleep parameters included latency to NREM sleep (defined as the time interval to the first six consecutive NREM epochs) and REM sleep (the first two consecutive REM epochs post-treatment), and the duration of NREM and REM.
Results were averaged and expressed as mean ± SEM in defined time intervals. To determine whether differences were significant at a given interval, either paired Student’s t-test or two-way analysis of variance (ANOVA) (interaction time × treatment), repeated measures followed by Bonferroni post hoc test was performed.
In the present study, the in vivo functional target engagement was investigated in a model of permanent inhibition of OX2R, and the effects of JNJ-5471773 on sleep-wake states were examined in mice lacking the OX2R relative to their corresponding wild-type mice. […] NREM sleep latency and duration were not affected in both genotypes (not shown).

[2] = molecular target: T1, OX1R in rat brain (tenia tecta) (Rattus norvegicus, UniProt P56718); assay: Ex vivo OX1R receptor occupancy autoradiography in rat brain (tenia tecta), with plasma bioanalysis; conditions: 10 mg/kg subcutaneous; for receptor occupancy at 10 mg/kg: sc
T1 construct: Twenty micron thick tissue sections at the level of the tenia tecta were prepared for autoradiography; from tissue; host or cells: brain sections (tenia tecta) of male Sprague-Dawley rats
T1 sequence (P56718 1-416): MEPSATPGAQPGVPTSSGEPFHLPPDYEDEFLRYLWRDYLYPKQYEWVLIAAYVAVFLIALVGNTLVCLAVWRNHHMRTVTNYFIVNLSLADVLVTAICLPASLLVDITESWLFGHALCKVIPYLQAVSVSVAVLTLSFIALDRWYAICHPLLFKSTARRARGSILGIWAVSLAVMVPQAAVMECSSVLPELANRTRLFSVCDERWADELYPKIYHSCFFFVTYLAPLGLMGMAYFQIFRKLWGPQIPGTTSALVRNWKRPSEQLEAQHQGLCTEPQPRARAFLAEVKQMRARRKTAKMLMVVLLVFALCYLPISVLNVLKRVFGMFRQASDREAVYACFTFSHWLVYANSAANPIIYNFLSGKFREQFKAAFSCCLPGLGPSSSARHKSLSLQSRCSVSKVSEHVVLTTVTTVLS

[3] = test system: Sprague-Dawley rats; assay: Normoxic 20% CO2 panic provocation model
Experimental: Experiments were performed in male Sprague-Dawley rats (300–350 g, Harlan Laboratory, Indianapolis, IN, United States). […] Following exposure to hypercarbic and atmospheric air gasses, rats were immediately placed in the open-field box for a 5 min period then assessed in SI test for 5 min. The data reported are changes in activity, expressed in 1 min bins, relative to the average of the baseline measurement (t-5 to t-1 minute) from each rat.
Each dependent variable for assessment of behavior and radiotelemetry data was respectively analyzed using a one way ANOVA, or a one way ANOVA with repeated measures with drug treatment as the main factor and time as repeated measures. In the presence of significant main effects post hoc tests were conducted using a parametric Fisher’s LSD test. Within subjects time effects were also assessed using a Dunnett’s one way analysis with the minute prior to the i.v infusion used as the control. Statistical significance was accepted with p < 0.05. All statistical analyses were carried out using SPSS 13.0 (SPSS, Inc., Chicago, IL, United States) and all graphs were generated using SigmaPlot 2001 (SPSS, Inc., Chicago, IL, United States) or Graphpad Prizm 7 Software, Inc. for Windows.
Activation of the OX1R is a critical component of CO2-mediated anxiety and hypertension ([Johnson et al., 2012a]). Exposing rats to higher concentrations of hypercarbic gas (e.g., 20% CO2) depolarizes OX neurons by interacting with pH/ CO2 chemosensitive K^+ channels ([Williams et al., 2007]), and also causes subsequent release of orexin at post-synaptic targets in the brain and spinal cord to mobilize anxiety-like behavior, hypertension, and increases ventilatory responses ([Johnson et al., 2012c], [2015]). JNJ-54717793 was tested in a rat model of CO2-induced panic.

O=C(c1cccc(F)c1-c1ncccn1)N1[C@@H]2CC[C@H]1[C@H](Nc1cnc(C(F)(F)F)cn1)C2 [JNJ-54717793, (1S,2R,4R)-7-([(3-fluoro-2-pyrimidin-2-ylphenyl)carbonyl]-N-[5-(trifluoromethyl)pyrazin-2-yl]-7-azabicyclo[2.2.1]heptan-2-amine)]
REM sleep duration ([1]; 30 mg/kg oral): did not alter | REM sleep latency ([1]; 30 mg/kg oral): slightly reduced | NREM sleep latency and duration ([1]; 30 mg/kg oral (not shown)): not affected | plasma concentration for maximal receptor occupancy [2]: 2211 ± 339 ng/mL | receptor occupancy at 10 mg/kg ([2]; 2 h time point, read-out: OX1R occupancy): 65% | receptor occupancy at 10 mg/kg ([2]; observed at 30 min, read-out: maximal OX1R occupancy): 83 ± 7% | CO2-induced pressor responses (MAP) ([3]; rats, 3 mg/kg p.o.): at one time point | CO2-induced pressor responses (MAP) ([3]; rats, 30 mg/kg p.o.): attenuated CO2-induced pressor responses at multiple time points | increases in locomotor activity post CO2 ([3]; rats, 3, 10, 30 mg/kg p.o.): no effect | CO2-induced bradycardia responses (HR) ([3]; rats, 10 and 30 mg/kg p.o.): attenuated CO2-induced bradycardia responses at multiple time points | center or middle times in the open field test ([3]; rats, after CO2 challenge): Nor was there an effect | sedative effects (line crossings) in the open field test ([3]; rats, after CO2 challenge): no apparent sedative effects | CO2-induced anxiety behavior in the SI test ([3]; rats, highest dose (30 mg/kg p.o.)): attenuated/blocked
